The text below walks through data of patent US20260315492A1, “5,6-FUSED BICYCLIC AMIDES AND COMPOSITIONS FOR USE AS 15-PROSTAGLANDIN DEHYDROGENASE MODULATORS” (AMGEN INC., priority 2023, published 2026).

The structures appear in SMILES notation.

The assay addresses T1, human recombinant 15-PGDH (Homo sapiens, UniProt P15428).
T1 sequence (P15428 1-266): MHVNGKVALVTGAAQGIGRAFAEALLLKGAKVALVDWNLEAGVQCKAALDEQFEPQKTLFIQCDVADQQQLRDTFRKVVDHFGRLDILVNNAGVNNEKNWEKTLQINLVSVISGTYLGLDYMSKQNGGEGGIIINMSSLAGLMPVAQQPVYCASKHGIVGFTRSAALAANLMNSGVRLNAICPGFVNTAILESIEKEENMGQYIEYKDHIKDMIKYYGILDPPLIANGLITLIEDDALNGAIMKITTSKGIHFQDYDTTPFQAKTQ
Kind of assay: Inhibition of recombinant 15-PGDH enzymatic activity (NADH quantification after addition of PGE2 and NAD+). The format is biochemical. Conditions: recombinant 15-PGDH; 15 min pre-incubation, 60-minute reaction, room temperature, pH 7.5; PGE2 and NAD+; read-out: PGDH-Lumi IC50. In a few lines:
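Human recombinant 15-PGDH in 50 mM Tris pH 7.5, 0.01% Tween-20, 100 μM DTT, pre-incubated 15 min at room temperature with 22-point 2-fold compound dilutions. Reaction started with PGE2 and β-NAD+, run 60 min at room temperature, quenched. NADH signal read as activity; IC50 from concentration-response.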
In general, IC50 refers to the concentration at which inhibition is half-maximal. On to `Cn1cc2cc(-c3cnc4sc(C(=O)N5CCC(F)(F)CC5)cc4n3)cnc2n1` [Compound C40, (4,4-difluoro-1-piperidinyl)(2-(2-methyl-2H-pyrazolo[3,4-b]pyridin-5-yl)thieno[2,3-b]pyrazin-6-yl)methanone], for which the IC50 came out at 0.726 nM.

As for `Cn1cc2cc(-c3ccc4sc(C(=O)N5CCC(F)(F)CC5)cc4n3)cnc2n1` [Compound C41, (4,4-difluoro-1-piperidinyl)(5-(2-methyl-2H-pyrazolo[3,4-b]pyridin-5-yl)thieno[3,2-b]pyridin-2-yl)methanone], the IC50 is 0.429 nM. Regarding `Cn1cc2cc(-c3ccc4sc(C(=O)N5CCCCC5)cc4n3)cnc2n1` [Compound C42, (5-(2-methyl-2H-pyrazolo[3,4-b]pyridin-5-yl)thieno[3,2-b]pyridin-2-yl)(1-piperidinyl)methanone], the IC50 is 0.394 nM. The result for `Cn1cc2cc(-c3ccc4sc(C(=O)N5CCCC(F)(F)C5)cc4n3)cnc2n1` [Compound C43, (3,3-difluoro-1-piperidinyl)(5-(2-methyl-2H-pyrazolo[3,4-b]pyridin-5-yl)thieno[3,2-b]pyridin-2-yl)methanone] reads 0.375 nM; that for `Cn1cc2cc(-c3ccc4sc(C(=O)N5CCOCC5)cc4n3)cnc2n1` [Compound C44, (5-(2-methyl-2H-pyrazolo[3,4-b]pyridin-5-yl)thieno[3,2-b]pyridin-2-yl)(4-morpholinyl)methanone], 4.51 nM. The result for `Cn1cc2cc(-c3ccc4sc(C(=O)N5CCCCC5)c(N)c4n3)cnc2n1` [Compound C45, (3-amino-5-(2-methyl-2H-pyrazolo[3,4-b]pyridin-5-yl)thieno[3,2-b]pyridin-2-yl)(1-piperidinyl)methanone] reads 0.679 nM; that for `Cn1cc2cc(-c3ccc4sc(C(=O)N5CCOCC5)c(N)c4n3)cnc2n1` [Compound C46, (3-amino-5-(2-methyl-2H-pyrazolo[3,4-b]pyridin-5-yl)thieno[3,2-b]pyridin-2-yl)(4-morpholinyl)methanone], 20.1 nM; that for `Cn1cc2cc(-c3ccc4sc(C(=O)N5CCCC(F)(F)C5)c(N)c4n3)cnc2n1` [Compound C47, (3-amino-5-(2-methyl-2H-pyrazolo[3,4-b]pyridin-5-yl)thieno[3,2-b]pyridin-2-yl)(3,3-difluoro-1-piperidinyl)methanone], 1.63 nM. Regarding `Cn1cc2cc(-c3ccc4sc(C(=O)N5CCC(F)(F)CC5)c(N)c4n3)cnc2n1` [Compound C48, (3-amino-5-(2-methyl-2H-pyrazolo[3,4-b]pyridin-5-yl)thieno[3,2-b]pyridin-2-yl)(4,4-difluoro-1-piperidinyl)methanone], the concentration for half-maximal inhibition (IC50) was found to be 3.53 nM.

As for `Cn1cc2cc(-c3nc(C4CC4)c4sc(C(=O)N5CCOCC5)cc4n3)cnc2n1` [Compound C49, (4-cyclopropyl-2-(2-methyl-2H-pyrazolo[3,4-b]pyridin-5-yl)thieno[3,2-d]pyrimidin-6-yl)(4-morpholinyl)methanone], the IC50 turned out to be 1.67 nM. The result for `O=C(c1nc2ccc(N3CCOCC3)nc2s1)N1CCOCC1` [Compound C50, 4-morpholinyl(5-(4-morpholinyl)[1,3]thiazolo[5,4-b]pyridin-2-yl)methanone] reads 14400 nM. Consider `Cn1cc2cc(-c3ccc4nc(C(=O)N5CCOCC5)sc4n3)cnc2n1` [Compound C51, (5-(2-methyl-2H-pyrazolo[3,4-b]pyridin-5-yl)[1,3]thiazolo[5,4-b]pyridin-2-yl)(4-morpholinyl)methanone], for which the IC50 stood at 17.9 nM.

Consider `C[C@@H]1COCCN1C(=O)c1nc2ccc(-c3cnc4nn(C)cc4c3)nc2s1` [Compound C52R, ((3R)-3-methyl-4-morpholinyl)(5-(2-methyl-2H-pyrazolo[3,4-b]pyridin-5-yl)[1,3]thiazolo[5,4-b]pyridin-2-yl)methanone], for which the IC50 came to 17 nM. With `C[C@H]1COCCN1C(=O)c1nc2ccc(-c3cnc4nn(C)cc4c3)nc2s1` [Compound C52S, ((3S)-3-methyl-4-morpholinyl)(5-(2-methyl-2H-pyrazolo[3,4-b]pyridin-5-yl)[1,3]thiazolo[5,4-b]pyridin-2-yl)methanone], the IC50 came out at 25.7 nM.
